This assay deals with HPRT gene. As to the kind of experiment: Hprt mutation assay in synchronized CHO cells. It counts as cell-based, Chinese Hamster. Here is the method: Synchronization protocol: Chinese Hamster Ovary (CHO) AA8 cells (ATCC) were prepared as described above for the HPRT knockout assay. The cells were synchronized in G0/G1 by a variation of the method described by Sawai et al. (96). Briefly, cells were plated at subconfluent levels and the next day the medium changed to DMEM with 2% FBS and 2% DMSO. After 48 h the cells were washed (˜85% G0/G1 cells by FACS analysis) and either electroporated or fed with complete medium (for G1 phase experiments), or incubated with complete medium containing 100 μM mimosine for 16 hrs to block them in early S phase (˜90% early S cells). See Orren et al. for complete details on this procedure (49). After 16 hrs the cells were released from the mimosine block by feeding with DMEM/10% FBS. TFO electroporation, Psoralen treatment, and Hprt mutation assay: Cells were suspended at 10^7/mL and mixed with TFO at 5 μM. The cells were electroporated (BioRad), followed by incubation at room temperature for 3 hrs, and a 3 min exposure in a Rayonet chamber to UVA light at 1.8 J/cm^2. […] Cells treated with free psoralen were incubated with 5 μM psoralen for 30 min, followed by UVA treatment. The cells were passaged and then exposed to thioguanine (TG) selection (43).

The values below come from patent publication US20040009602A1, “DNA modifying molecules and methods of use thereof” (The Government of the U.S.A. as represented by the …, priority 2002, published 2004).

Regarding `O=c1ccc2cc3ccoc3cc2o1` [psoralen], the “frequency of thioguanine resistant colonies” value (5 μM free psoralen 30 min, UVA, different phases of cell cycle, background 0.001%) is recorded as 0.004-0.005%. Under “free psoralen/UVA”, the “cell cycle variability of mutation frequency” value was “essentially unchanged across the cell cycle”.
